Data as given in patent US20170273922A1, “UREA AND BIS-UREA BASED COMPOUNDS AND ANALOGUES THEREOF USEFUL IN THE TREATMENT OF ANDROGEN RECEPTOR MEDIATED DISEASES OR DISORDERS” (THE ROYAL INSTITUTION FOR THE ADVACEMENT OF LEARNING/MCGILL …, priority 2014, published 2017).

Assays:
Type in all cases: cell-based
[1] = MTT assay (cytotoxicity), LNCaP cells; settings: human, LNCaP cells, 72 h
Experimental: (§1) MTT assays: LNCaP, 22Rv1, Du145, H1975, A549, MB231 and MCF-7 cells are maintained in RPMI 1640 supplemented with 10% FBS. Cells were seeded at a density of 6-7×10^3 cells per well in 96-well plates. After overnight incubation, cells in fresh RPMI 1640 supplemented with 10% FBS were exposed to DMSO vehicle control or test compounds at designated concentrations for 72 h. Viable cells were evaluated by MTT assays. Experiments were performed in triplicate and repeated at least twice.

[2] = MTT assay (cytotoxicity), DU145 cells; settings: human, DU145 cells
Experimental: as §1

[3] = MTT assay (cytotoxicity), 22Rv1 cells; settings: human, 22Rv1 cells, 72 h
Experimental: as §1

[4] = target: T1, endogenous AR T877A mutant in LNCaP cells (Homo sapiens, UniProt P10275, T878A); test: PSA-luc reporter assay in LNCaP cells (endogenous AR T877A mutant); settings: PSA-luc, 24 h
T1 construct: LNCaP cells, which express endogenous AR T877A mutant; endogenous in cells; host or cells: LNCaP
T1 sequence (P10275 1-920 T878A): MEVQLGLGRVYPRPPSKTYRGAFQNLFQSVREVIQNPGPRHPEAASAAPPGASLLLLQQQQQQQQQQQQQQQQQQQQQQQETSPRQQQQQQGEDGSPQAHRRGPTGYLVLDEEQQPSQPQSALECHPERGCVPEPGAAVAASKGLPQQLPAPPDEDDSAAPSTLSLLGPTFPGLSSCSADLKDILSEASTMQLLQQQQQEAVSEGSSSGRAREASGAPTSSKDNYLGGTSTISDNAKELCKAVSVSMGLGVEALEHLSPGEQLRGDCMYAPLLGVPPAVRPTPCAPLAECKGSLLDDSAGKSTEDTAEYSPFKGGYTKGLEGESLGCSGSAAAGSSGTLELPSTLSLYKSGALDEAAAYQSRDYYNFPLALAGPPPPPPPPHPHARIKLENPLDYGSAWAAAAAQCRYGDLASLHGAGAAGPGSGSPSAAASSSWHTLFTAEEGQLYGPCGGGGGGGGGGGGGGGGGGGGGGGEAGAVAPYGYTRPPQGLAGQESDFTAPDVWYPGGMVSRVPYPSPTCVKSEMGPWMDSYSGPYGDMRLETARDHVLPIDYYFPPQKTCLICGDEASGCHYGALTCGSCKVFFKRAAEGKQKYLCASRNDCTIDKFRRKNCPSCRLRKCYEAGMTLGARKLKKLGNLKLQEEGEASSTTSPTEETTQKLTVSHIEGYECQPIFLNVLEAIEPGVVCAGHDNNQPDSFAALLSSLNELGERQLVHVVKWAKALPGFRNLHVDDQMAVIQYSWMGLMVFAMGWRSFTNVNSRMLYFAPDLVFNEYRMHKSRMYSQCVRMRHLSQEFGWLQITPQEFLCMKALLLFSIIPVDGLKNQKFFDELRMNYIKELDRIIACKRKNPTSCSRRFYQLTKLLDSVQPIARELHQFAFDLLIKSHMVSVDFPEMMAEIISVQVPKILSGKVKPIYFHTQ
Experimental: Experiments were in duplicate and repeated three times. […] LNCaP cells in whole medium were exposed to DMSO vehicle control or compounds for 24 h.

| SMILES | IC50 at 72 h ([1]; Table 2.4) | IC50 at 72 h ([2]; Table 2.4) | IC50 at 72 h ([3]; Table 2.4) | IC50 at 72 h ([1]; Table 2.3) | IC50 at 72 h ([2]; Table 2.3) | IC50 at 72 h ([3]; Table 2.3) | further results |
| --- | --- | --- | --- | --- | --- | --- | --- |
| O=C(N/C=C/c1cccc(C(F)(F)F)c1)NCc1ccc([N+](=O)[O-])cc1 [Compound 447] | 7.5 µM | 8 µM | 7.5 µM |  |  |  | effect of increasing DHT from 1 nM to 10 nM on inhibitory activity in LNCaP cells [4]: not competed out |
| CC(C)(C)OC(=O)n1cnc(/C=C/NC(=O)Nc2ccc([N+](=O)[O-])c(C(F)(F)F)c2)c1 [Compound 453] | 4 µM | > 20 µM | > 20 µM |  |  |  |  |
| O=C(N/C=C/c1ccc([N+](=O)[O-])c(C(F)(F)F)c1)NCc1cccc(C(F)(F)F)c1 [Compound 461] | 2.4 µM | 3.4 µM | 3.4 µM |  |  |  |  |
| O=C(N/C=C/c1cc(C(F)(F)F)cc(C(F)(F)F)c1)Nc1ccc2ncccc2c1 [Compound 515] |  |  |  | > 10 µM | > 10 µM | > 10 µM |  |
| O=C(N/C=C/c1cc(C(F)(F)F)ccc1C(F)(F)F)Nc1ccc2ncccc2c1 [Compound 517] |  |  |  | 3.4 µM | 6.2 µM | > 10 µM |  |
| O=C(N/C=C/c1cccc(C(F)(F)F)c1)Nc1ccc2[nH]ccc2c1 [Compound 520] |  |  |  | 6.5 µM | > 10 µM | > 10 µM |  |
| O=C(Nc1cccc(C(F)(F)F)c1)Nc1ccc2[nH]ccc2c1 [Compound 522] |  |  |  |  |  |  | IC50 at 72 h ([1]; Table 4.1): > 10 µM; IC50 at 72 h ([2]; Table 4.1): > 10 µM; IC50 at 72 h ([3]; Table 4.1): > 10 µM |
| O=C(N/C=C/c1cc(C(F)(F)F)cc(C(F)(F)F)c1)Nc1cnc2ccccc2c1 [Compound 523] |  |  |  | 8 µM | 10 µM | 8.4 µM |  |
| O=C(N/C=C/c1cc(C(F)(F)F)ccc1C(F)(F)F)Nc1cnc2ccccc2c1 [Compound 524] |  |  |  | 3.4 µM | 7.4 µM | 8.4 µM |  |
| O=C(N/C=C/c1cccc(C(F)(F)F)c1)Nc1cnc2ccccc2c1 [Compound 525] |  |  |  | > 10 µM | > 10 µM | > 10 µM |  |
